Our source for the IC50 values is patent US10793582B2, “Bicyclic heterocyclic compound” (MITSUBISHI TANABE PHARMA CORPORATION, priority 2015, dated 2020).

SMILES strings stand for the structures. Structures can show the parent of a compound that is named as a salt.

In this assay the target is human recombinant KAT-II (Homo sapiens (Human), UniProt Q8N5Z0). In words: KAT-II inhibitory test. Type of assay: biochemical. The note with it: 3.0 μmol/L kynurenine, 37° C. for 1 hr, kynurenic acid by HPLC. How it is done: The compounds described in the above-mentioned Examples were used for the KAT-II inhibitory test.
Chain of human recombinant KAT-II (Q8N5Z0 30-425): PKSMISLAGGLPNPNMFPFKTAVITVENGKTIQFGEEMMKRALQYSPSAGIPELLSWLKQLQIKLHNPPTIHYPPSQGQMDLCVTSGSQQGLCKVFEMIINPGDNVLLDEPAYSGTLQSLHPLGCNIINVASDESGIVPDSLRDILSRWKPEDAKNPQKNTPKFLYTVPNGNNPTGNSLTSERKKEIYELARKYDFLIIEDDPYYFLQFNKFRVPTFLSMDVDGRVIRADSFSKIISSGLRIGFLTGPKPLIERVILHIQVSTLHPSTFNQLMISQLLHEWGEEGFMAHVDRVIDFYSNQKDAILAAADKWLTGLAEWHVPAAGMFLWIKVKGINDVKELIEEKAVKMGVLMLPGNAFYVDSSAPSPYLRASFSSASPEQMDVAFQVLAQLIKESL
Human recombinant KAT-II was prepared as follows.
His tag and maltose binding protein tag were added to the N-terminal of a gene encoding human KAT-II (Genbank accession number: AF481738.1), and the obtained gene was incorporated into pET32 (Merck Nihon Millipore), which is an Escherichia coli expression vector. Human recombinant KAT-II produced by BL21(DE3) Escherichia coli (Merck Nihon Millipore, 69450) transformed using the plasmid was purified using an amylose resin column (New England Biolabs, #800-21 L).
The inhibitory action of the test compound on human recombinant KAT-II was determined by the following method.
To a reaction mixture (45 μL) containing 3.0 μmol/L kynurenine, 10 μmol/L pyridoxal phosphate, 2.0 ng/μL human recombinant KAT-II, and 150 mmol/L tris(hydroxymethyl)aminomethane-acetate buffer (pH 8.0) was added a 10% dimethyl sulfoxide solution (5 μL) of each test compound prepared, and the mixture was reacted at 37° C. for 1 hr. After the reaction, 50% trichloroacetic acid (5 μL) was added to terminate the reaction.
The resultant kynurenic acid was quantified as follows by high performance liquid chromatography. An enzyme reaction mixture was separated by an octadecylsilane reversed-phase column (SC-50DS, Eicom Corporation; mobile phase: 250 mmol/L zinc acetate, 50 mmol/L sodium acetate, and 5.0% acetonitrile (pH 6.2)) incubated at 30° C., and kynurenic acid was quantified using a fluorescence detector (RF-20Axs, Shimadzu Corporation) at excitation wavelength 354 nm, detection wavelength 460 nm. The analytical curve was drawn every time by an external standard method. Each test compound was tested by dual measurement at each concentration. The kynurenic acid level in the presence of a test compound at each concentration was converted into % relative to kynurenic acid resulting from a reaction with an enzyme alone as 100%, and the obtained values were fitted to S-curve to determine IC50.
`Cc1nc(-c2cnc3nc(N4CCC[C@@H]4C(=O)N[C@H](C)c4ccccc4)sc3c2)no1` [Example 148, (R)-1-[6-(5-methyl-1,2,4-oxadiazol-3-yl)[1,3]thiazolo[4,5-b]pyridin-2-yl]-N-[(1R)-1-phenylethyl]pyrrolidine-2-carboxamide]: the IC50 was 0.093 µM.
In the case of `Cc1nc(-c2c(C)cnc3nc(N4CCC[C@@H]4C(=O)NCc4ccccc4)sc23)no1` [Example 149], the IC50 was found to be 0.11 µM.
On to `O=C(NCc1ccccc1)[C@H]1CCCN1c1nc2ncc(OC3COC3)cc2s1` [Example 151], for which the concentration for half-maximal inhibition (IC50) stood at 0.27 µM.
Take `COCc1cnc2nc(N3CCC[C@@H]3C(=O)NCc3ccccc3)sc2c1` [Example 159]: the half-maximal inhibitory concentration (IC50) came to 0.64 µM.
In the case of `N#Cc1cnc2nc(N3CCC[C@@H]3C(=O)NCc3ccccc3)sc2c1C1CC1` [Example 161], the IC50 was found to be 0.081 µM.
As for `O=C(NCc1ccc(F)cc1)[C@H]1CCCN1c1nc2ncc(C3CC3)cc2s1` [Example 162, (R)-1-(6-cyclopropyl[1,3]thiazolo[4,5-b]pyridin-2-yl)-N-(4-fluorobenzyl)pyrrolidine-2-carboxamide], the IC50 was determined as 0.3 µM.
`COCc1c(F)cnc2nc(N3CCC[C@@H]3C(=O)NCc3ccccc3)sc12` [Example 163, (R)—N-benzyl-1-[6-fluoro-7-(methoxymethyl)[1,3]thiazolo[4,5-b]pyridin-2-yl]pyrrolidine-2-carboxamide]: the IC50 is 0.91 µM.
On to `CCOc1c(COC)cnc2nc(N3CCC[C@@H]3C(=O)NCc3ccccc3)sc12` [Example 164], for which the IC50 turned out to be 0.15 µM.
In the case of `CCc1c(-c2cnn(C)c2)cnc2nc(N3CCC[C@@H]3C(=O)NCc3ccccc3)sc12` [Example 170, (R)—N-benzyl-1-[7-ethyl-6-(1-methyl-1H-pyrazol-4-yl)[1,3]thiazolo[4,5-b]pyridin-2-yl]pyrrolidine-2-carboxamide], the half-inhibitory concentration (IC50) worked out at 0.034 µM.
Take `Cc1nc(C(C)(C)c2cnc3nc(N4CCC[C@@H]4C(=O)NCc4ccccc4)sc3c2)no1` [Example 171, (R)—N-benzyl-1-{6-[2-(5-methyl-1,2,4-oxadiazol-3-yl)propan-2-yl][1,3]thiazolo[4,5-b]pyridin-2-yl}pyrrolidine-2-carboxamide]: the IC50 came out at 0.39 µM.
On to `O=C(NCc1ccccc1)[C@H]1CCCN1c1nc2ncc(CN3CCCCC3)c(C3CC3)c2s1` [Example 175, (R)—N-benzyl-1-[7-cyclopropyl-6-(piperidin-1-ylmethyl)[1,3]thiazolo[4,5-b]pyridin-2-yl]pyrrolidine-2-carboxamide hydrochloride], for which the half-maximal inhibitory concentration (IC50) came to 0.36 µM.
`CN(C)Cc1cnc2nc(N3CCC[C@@H]3C(=O)NCc3ccccc3)sc2c1C1CC1` [Example 176, (R)—N-benzyl-1-{7-cyclopropyl-6-[(dimethylamino)methyl][1,3]thiazolo[4,5-b]pyridin-2-yl}pyrrolidine-2-carboxamide hydrochloride]: the IC50 came out at 0.19 µM.
`N#Cc1cnc2nc(N3CCC[C@@H]3C(=O)NCc3ccccc3Cl)sc2c1` [Example 178]: the half-inhibitory concentration (IC50) worked out at 0.9 µM.
In the case of `Cc1nc(-c2cnc3nc(N4CCC[C@@H]4C(=O)NCc4ccccc4)sc3c2)no1` [Example 183, (R)—N-benzyl-1-[6-(5-methyl-1,2,4-oxadiazol-3-yl)[1,3]thiazolo[4,5-b]pyridin-2-yl]pyrrolidine-2-carboxamide], the half-inhibitory concentration (IC50) was 0.64 µM.
For `CCc1cnc2nc(N3CCC[C@@H]3C(=O)NCc3ccccc3)sc2n1` [Example 187], the IC50 amounted to 0.14 µM.
The same measure for `CCc1cnc2nc(N3CCC[C@@H]3C(=O)NCc3ccc(F)cc3)sc2n1` [Example 188]: 0.3 µM; for `O=C(NCc1ccccc1)[C@H]1CCCN1c1nc2ncc(-c3ccccc3)nc2s1` [Example 189]: 0.21 µM; for `CCOc1cnc2nc(N3CCC[C@@H]3C(=O)NCc3ccccc3)sc2n1` [Example 190]: 0.49 µM.
The figure for `CN(C)c1cnc2nc(N3CCC[C@@H]3C(=O)NCc3ccccc3)sc2n1` [Example 191] is 0.21 µM; for `O=C(NCc1ccccc1)[C@H]1CCCN1c1nc2ncc(C3CC3)nc2s1` [Example 192, (R)—N-benzyl-1-(6-cyclopropyl[1,3]thiazolo[4,5-b]pyrazin-2-yl)pyrrolidine-2-carboxamide] it is 0.033 µM; for `Cc1cnc2nc([C@H]3CCCN3C(=O)Cc3ccccc3)sc2c1` [Example 196, 1-[(R)-2-(6-methyl[1,3]thiazolo[4,5-b]pyridin-2-yl)pyrrolidin-1-yl]-2-phenylethanone] it is 2.9 µM.
The same measure for `Cc1cnc2nc([C@H]3CCCN3C(=O)Oc3ccccc3)sc2c1` [Example 197, phenyl (R)-2-(6-methyl[1,3]thiazolo[4,5-b]pyridin-2-yl) pyrrolidine-1-carboxylate]: 3 µM; for `Cc1cnc2nc([C@H]3CCCN3C(=O)NC3(c4ccccc4)CC3)sc2c1` [Example 203, (R)-2-(6-methyl[1,3]thiazolo[4,5-b]pyridin-2-yl)-N-(1-phenylcyclopropyl)-pyrrolidine-1-carboxamide]: 7.4 µM.
